The target in one experiment is rNav1.2a (Rattus norvegicus, UniProt P04775). Briefly: Whole-cell recording of peak sodium current, inhibition by Lamotrigine, classical brain type rNav1.2a. Type of experiment: cell-based. The settings on record: physiological saline, stimulation every 5 second, step from holding potential (e.g. −90 mV) to −10 mV. As to the method: (§1) Comparison of the Inhibitory Effect of Lamotrigine on the Classical Brain Type rNav1.2a and the Sodium Channel Expressed Endogenously in HiB5 Cells (rNav1.5a)
(§2) Experiments were performed as whole-cell recordings in physiological saline with stimulation of the sodium channel every 5 second by stepping from a holding potential (e.g. −90 mV) to −10 mV and monitoration of the peak current as a function of the concentration of Lamotrigine added to the recording chamber.

The next experiment has as its target T1, rNav1.5a (Rattus norvegicus, UniProt P15389).
T1 construct: the Sodium Channel Expressed Endogenously in HiB5 Cells (rNav1.5a); endogenous in cells; host or cells: HiB5 (rat hippocampal stem cell line)
Briefly: Whole-cell recording of peak sodium current, inhibition by Lamotrigine, sodium channel expressed endogenously in HiB5 cells (rNav1.5a). Type of experiment: cell-based. How it is done:
as §1, §2

T1 sequence (P15389 1-1966 isoform P15389-2): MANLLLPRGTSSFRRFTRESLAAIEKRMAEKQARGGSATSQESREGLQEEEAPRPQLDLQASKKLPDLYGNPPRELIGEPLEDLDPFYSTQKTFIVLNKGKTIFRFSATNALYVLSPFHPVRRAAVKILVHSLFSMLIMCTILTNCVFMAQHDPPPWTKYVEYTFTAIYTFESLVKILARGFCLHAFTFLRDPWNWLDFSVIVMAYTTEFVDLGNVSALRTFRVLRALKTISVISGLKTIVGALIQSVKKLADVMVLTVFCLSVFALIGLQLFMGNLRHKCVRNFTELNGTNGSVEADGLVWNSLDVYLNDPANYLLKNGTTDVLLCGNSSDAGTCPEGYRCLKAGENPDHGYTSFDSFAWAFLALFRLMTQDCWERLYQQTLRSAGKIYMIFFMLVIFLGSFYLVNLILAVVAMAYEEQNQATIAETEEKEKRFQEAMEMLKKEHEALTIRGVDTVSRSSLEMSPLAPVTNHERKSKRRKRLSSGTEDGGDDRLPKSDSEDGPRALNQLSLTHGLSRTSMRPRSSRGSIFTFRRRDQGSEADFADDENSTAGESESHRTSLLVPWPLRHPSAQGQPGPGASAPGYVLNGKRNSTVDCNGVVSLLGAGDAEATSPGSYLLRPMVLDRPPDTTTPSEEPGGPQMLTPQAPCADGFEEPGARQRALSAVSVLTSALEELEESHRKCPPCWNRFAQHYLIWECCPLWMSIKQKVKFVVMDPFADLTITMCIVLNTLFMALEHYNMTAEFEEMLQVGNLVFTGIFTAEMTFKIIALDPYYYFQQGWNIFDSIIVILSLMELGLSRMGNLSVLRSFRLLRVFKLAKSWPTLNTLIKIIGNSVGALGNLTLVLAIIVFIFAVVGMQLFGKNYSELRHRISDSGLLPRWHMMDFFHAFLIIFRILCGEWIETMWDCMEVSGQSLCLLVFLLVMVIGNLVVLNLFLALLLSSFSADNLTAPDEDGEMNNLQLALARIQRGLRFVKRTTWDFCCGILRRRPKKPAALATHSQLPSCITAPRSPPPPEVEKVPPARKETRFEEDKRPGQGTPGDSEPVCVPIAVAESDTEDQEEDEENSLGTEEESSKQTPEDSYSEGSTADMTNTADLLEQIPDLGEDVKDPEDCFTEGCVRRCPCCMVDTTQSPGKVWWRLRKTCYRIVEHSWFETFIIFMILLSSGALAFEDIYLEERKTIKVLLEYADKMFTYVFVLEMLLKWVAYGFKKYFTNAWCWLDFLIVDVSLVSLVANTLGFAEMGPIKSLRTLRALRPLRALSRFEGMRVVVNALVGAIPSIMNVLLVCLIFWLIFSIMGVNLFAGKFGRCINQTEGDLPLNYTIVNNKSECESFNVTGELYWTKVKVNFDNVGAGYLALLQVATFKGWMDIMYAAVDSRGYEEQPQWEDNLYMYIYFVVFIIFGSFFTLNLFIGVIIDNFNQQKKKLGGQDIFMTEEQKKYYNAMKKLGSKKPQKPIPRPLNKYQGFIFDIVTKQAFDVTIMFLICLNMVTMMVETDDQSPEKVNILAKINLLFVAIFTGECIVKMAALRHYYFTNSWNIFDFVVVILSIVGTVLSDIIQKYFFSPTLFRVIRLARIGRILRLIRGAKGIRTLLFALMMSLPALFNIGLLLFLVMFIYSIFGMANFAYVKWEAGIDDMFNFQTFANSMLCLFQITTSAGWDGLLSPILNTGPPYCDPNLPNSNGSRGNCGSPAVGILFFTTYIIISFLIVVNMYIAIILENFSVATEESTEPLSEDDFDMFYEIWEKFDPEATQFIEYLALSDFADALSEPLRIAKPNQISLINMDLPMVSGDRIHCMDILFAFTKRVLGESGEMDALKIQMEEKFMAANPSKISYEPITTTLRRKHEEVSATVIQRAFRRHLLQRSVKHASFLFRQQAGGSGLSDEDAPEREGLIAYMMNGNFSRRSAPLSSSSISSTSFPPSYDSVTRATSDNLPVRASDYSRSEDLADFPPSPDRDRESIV

In the case of `Nc1nnc(-c2cccc(Cl)c2Cl)c(N)n1` [Lamotrigine], the IC50 is 500 µM on rNav1.2a and 20 µM against rNav1.5a (HiB5 cells, whole-cell recording, physiological saline, stimulation every 5 second, step from holding potential (e.g. −90 mV) to −10 mV). Moreover, at rNav1.5a (comparison with BIIA (rNav1.2a), see Example 2), the “Potency on rNav1.5a relative to classical brain subtype BIIA” value is given as “more potently”.
